From patent US11459315B2, “Modulators of methyl modifying enzymes, compositions and uses thereof” (Constellation Pharmaceuticals, Inc., priority 2017, dated 2022) come the findings set out here.

Structures are written as SMILES. Read-outs that look alike come from different tables or passages of the source. A value given as a limit tells only on which side of the number the result lay.

Experiment [1] has as its system H3K27me3 mark in HeLa cells (EZH2). Put plainly: H3K27me3 Alpha Hela Assay (AlphaLISA). It counts as cell-based. The following applies: Homo sapiens, HeLa. Put shortly: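 HeLa cells (1,000/well) treated with ten 3-fold compound doses for 72 h at 37 °C; lysates extracted and H3K27me3 detected by AlphaLISA with anti-K27me3 acceptor beads, biotinylated anti-H3 (3 nM) and streptavidin donor beads. EC50 from DMSO-normalized dose-response curves; duplicate plate assessed viability.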
(Alpha assays give light when donor and acceptor beads are brought close together.)

Experiment [2] concerns the target T1, PRC2 containing wt EZH2 (Homo sapiens (Human), UniProt Q15910). Briefly: EZH2 residence time assay (100-fold dilution of pre-formed enzyme-inhibitor complex). In kind it is biochemical. The protocol: EZH2 residence time assay: Compound residence times were assessed by monitoring the recovery of enzyme activity following a 100-fold dilution of pre-formed enzyme-inhibitor complex (dilution reaction), and comparing it to the activity of an undiluted control with the same final concentrations of all reagents (control reaction). Enzyme activity was measured by incorporation of ^3H-SAM into a biotinylated H3 peptide. […] For the control reaction, 0.202 nM PRC2 was pre-incubated with 1 μM activating peptide, 1.01 μM SAM, 1.01 μM ^3H-SAM, and compound at 6.06 times its Ki for 2 h in 138.6 μL of buffer, then the reaction was initiated by the addition of 1.4 μL 500 μM substrate peptide in water. Reactions were quenched at various time points spanning up to 10 hours, by transferring 8 μL aliquots from the reaction vessel to a plate containing 8 μL per well of STOP solution (50 mM Tris pH 8.5, 200 mM EDTA, 2 mM SAH). After the last time point, 12 μL of the quenched solutions were transferred to a streptavidin coated FlashPlate (PerkinElmer) containing 40 μL per well of STOP solution, incubated 1-8 h, washed, and read in a TopCount plate reader (PerkinElmer). A custom script was used to fit control reaction progress data to a straight line and dilution reaction progress data:
Where y is the product formed, t is the reaction time, vi is the initial velocity, vs is the steady state velocity, and kobs is the rate constant for the transition from the initial velocity phase of the curve to the steady state velocity phase of the curve. In fitting the dilution reaction progress data, vs was constrained to the slope of the line fitted to the control reaction progress data. The fitted value of kobs was then transformed into residence time:
Where τ is residence time, Ki is the inhibition constant, [EI] is the calculated equilibrium concentration of enzyme-inhibitor complex, [E] is the calculated equilibrium concentration of free enzyme, and [I] is the calculated equilibrium concentration of free inhibitor.

Experiment [3] addresses T1, PRC2 containing wt EZH2. Briefly: EZH2 biochemical assay (IC50), 3H-SAM incorporation into biotinylated H3 peptide. The following applies: 30 pM PRC2 containing wt EZH2, 3-5 h pre-incubation. Put shortly:
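The PRC2 pentamer with wt EZH2 (30 pM) was pre-incubated for 3-5 h with 450 nM SAM plus 450 nM ³H-SAM, 2 µM H3K27me3 activating peptide and compound (0.8% DMSO) in Tris at pH 8.5. Biotinylated H3K27me1 peptide was added and the reaction ran 18-22 h at RT. Incorporated ³H was captured on streptavidin plates, and IC50 was taken from a four-parameter fit.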

The mark [4] stands for this setting: HeLa cell assay, Table 3 classes, read-out: EC50 Cellular Activity.
The mark [5] stands for this setting: 72 h, HeLa cells, 72 hrs, read-out: EZH2 Cell H3K27me3 Alpha HeLa (EC50 K27me3).

T1 sequence (Q15910 whole entry): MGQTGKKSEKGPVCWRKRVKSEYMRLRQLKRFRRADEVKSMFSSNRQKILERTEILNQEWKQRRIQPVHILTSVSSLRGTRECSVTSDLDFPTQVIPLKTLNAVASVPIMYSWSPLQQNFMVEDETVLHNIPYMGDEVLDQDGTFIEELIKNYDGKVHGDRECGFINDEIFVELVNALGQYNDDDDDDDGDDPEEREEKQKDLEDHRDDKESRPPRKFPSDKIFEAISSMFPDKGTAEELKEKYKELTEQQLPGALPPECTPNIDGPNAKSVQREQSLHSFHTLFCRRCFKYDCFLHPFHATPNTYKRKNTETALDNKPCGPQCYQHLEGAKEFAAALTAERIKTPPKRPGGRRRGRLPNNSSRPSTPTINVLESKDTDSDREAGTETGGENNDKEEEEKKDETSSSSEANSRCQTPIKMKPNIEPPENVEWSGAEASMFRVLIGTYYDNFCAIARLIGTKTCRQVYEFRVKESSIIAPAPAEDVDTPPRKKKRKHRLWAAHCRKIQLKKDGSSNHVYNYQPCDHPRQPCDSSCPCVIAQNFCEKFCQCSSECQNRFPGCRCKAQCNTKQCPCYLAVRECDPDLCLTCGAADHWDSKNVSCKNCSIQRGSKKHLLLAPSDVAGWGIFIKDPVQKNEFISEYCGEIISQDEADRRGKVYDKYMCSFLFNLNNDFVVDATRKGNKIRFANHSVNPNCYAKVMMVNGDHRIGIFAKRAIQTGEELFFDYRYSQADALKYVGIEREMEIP
T1 sequence (O75530 whole entry partner): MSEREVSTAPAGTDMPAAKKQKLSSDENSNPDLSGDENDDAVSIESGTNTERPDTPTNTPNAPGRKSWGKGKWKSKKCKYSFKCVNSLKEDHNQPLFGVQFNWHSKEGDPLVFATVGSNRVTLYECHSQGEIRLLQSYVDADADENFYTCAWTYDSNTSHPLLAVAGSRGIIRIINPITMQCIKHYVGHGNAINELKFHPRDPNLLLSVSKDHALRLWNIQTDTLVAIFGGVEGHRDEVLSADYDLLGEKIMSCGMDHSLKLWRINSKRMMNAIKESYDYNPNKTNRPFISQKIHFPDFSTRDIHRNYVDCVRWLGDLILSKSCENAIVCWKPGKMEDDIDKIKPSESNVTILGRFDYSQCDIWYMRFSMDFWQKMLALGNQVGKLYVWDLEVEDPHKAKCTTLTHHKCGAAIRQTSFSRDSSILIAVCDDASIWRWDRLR
T1 sequence (Q15022 whole entry partner): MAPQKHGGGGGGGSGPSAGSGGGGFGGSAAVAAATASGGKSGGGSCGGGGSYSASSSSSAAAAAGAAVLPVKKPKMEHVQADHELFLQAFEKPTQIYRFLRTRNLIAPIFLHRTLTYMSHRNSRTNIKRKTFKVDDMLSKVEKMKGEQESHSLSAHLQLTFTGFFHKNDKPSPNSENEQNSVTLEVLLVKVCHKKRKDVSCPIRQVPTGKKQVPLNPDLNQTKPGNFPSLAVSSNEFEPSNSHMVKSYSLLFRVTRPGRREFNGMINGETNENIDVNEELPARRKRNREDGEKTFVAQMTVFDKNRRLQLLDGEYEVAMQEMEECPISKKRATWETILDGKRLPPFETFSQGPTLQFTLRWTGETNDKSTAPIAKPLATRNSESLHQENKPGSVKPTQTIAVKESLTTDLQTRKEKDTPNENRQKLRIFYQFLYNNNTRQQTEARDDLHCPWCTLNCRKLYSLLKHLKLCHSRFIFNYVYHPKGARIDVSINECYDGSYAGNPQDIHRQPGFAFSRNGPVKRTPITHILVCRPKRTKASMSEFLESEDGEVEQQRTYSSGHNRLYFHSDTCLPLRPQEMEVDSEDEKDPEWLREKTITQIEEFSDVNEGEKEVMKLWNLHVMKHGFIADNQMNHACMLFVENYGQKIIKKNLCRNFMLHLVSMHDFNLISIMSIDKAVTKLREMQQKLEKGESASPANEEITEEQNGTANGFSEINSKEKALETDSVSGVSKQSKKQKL
T1 sequence (Q09028 whole entry partner): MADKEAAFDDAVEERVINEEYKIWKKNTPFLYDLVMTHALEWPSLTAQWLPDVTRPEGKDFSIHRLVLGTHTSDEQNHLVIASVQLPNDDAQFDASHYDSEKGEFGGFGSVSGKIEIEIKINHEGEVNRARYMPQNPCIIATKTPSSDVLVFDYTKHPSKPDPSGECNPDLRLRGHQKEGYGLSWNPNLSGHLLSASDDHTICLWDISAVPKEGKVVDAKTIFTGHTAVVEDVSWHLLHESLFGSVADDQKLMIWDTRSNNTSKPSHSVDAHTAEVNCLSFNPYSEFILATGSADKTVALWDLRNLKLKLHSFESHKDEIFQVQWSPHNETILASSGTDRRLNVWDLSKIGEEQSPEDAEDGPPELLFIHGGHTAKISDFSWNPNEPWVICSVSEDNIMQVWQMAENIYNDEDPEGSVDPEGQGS
T1 sequence (Q6ZN18 whole entry partner): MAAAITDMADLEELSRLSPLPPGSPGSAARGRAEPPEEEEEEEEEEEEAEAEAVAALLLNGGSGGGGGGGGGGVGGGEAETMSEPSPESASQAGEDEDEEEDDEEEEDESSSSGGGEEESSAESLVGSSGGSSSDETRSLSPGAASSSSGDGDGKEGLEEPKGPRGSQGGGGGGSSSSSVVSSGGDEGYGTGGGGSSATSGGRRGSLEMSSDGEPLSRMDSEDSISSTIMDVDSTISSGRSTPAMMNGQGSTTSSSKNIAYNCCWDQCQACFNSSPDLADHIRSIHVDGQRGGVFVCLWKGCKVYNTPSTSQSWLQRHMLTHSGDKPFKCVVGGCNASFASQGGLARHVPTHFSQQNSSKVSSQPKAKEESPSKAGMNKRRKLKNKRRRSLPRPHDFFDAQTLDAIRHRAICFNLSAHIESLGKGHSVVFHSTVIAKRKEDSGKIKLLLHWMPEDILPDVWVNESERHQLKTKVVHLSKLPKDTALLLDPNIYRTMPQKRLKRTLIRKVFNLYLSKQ

With `Cc1cc(C)c(CNC(=O)c2c(C)n([C@H](C)C34CC(NC5COC5)(C3)C4)c3ccccc23)c(=O)[nH]1`, in experiment [1] (setting [4]), the EC50 – broadly, the concentration giving half of the maximal effect – lay within 25 to 125 nM. Besides, the residence time at PRC2 containing wt EZH2 [2] (read-out: Residence Time) was < 30 min.

For `Cc1cc(C)c(CNC(=O)c2c(C)n([C@H](C)C34CC(N(C)CC(F)(F)F)(C3)C4)c3ccccc23)c(=O)[nH]1`, the EC50 in experiment [1] (setting [4]) was > 125 nM. The residence time at PRC2 containing wt EZH2 [2] (read-out: Residence Time) was < 30 min.

Consider `COc1cc(C)[nH]c(=O)c1CNC(=O)c1c(C)n([C@H](C)C23CC(N(C)CC(F)(F)F)(C2)C3)c2ccccc12`, for which the EC50 in experiment [1] (setting [4]) was in the range of 25 to 125 nM. The residence time on PRC2 containing wt EZH2 [2] (read-out: Residence Time) is 30 to 300 min.

In the case of `Cc1cc(C)c(CNC(=O)c2c(C)n([C@H](C)C3CCN(CC(C)(C)O)CC3)c3ccccc23)c(=O)[nH]1`, the EC50 in experiment [1] (setting [4]) was > 125 nM. The residence time at PRC2 containing wt EZH2 [2] was < 30 min.

As for `COc1cc(C)[nH]c(=O)c1CNC(=O)c1c(C)n([C@H](C)C2CCN(CC(C)(C)O)CC2)c2ccccc12`, the EC50 in experiment [1] (setting [4]) was > 125 nM. In addition, the residence time on PRC2 containing wt EZH2 [2] is < 30 min.

Consider `Cc1cc(C)c(CNC(=O)c2c(C)n([C@H](C)C3CCN(CC(F)(F)F)CC3)c3ccccc23)c(=O)[nH]1`, for which, in experiment [1] (setting [4]), the EC50 was in the range of 25 to 125 nM. The residence time at PRC2 containing wt EZH2 [2] was < 30 min.

With `COc1cc(C)[nH]c(=O)c1CNC(=O)c1c(C)n([C@H](C)C2CCN(CC(F)(F)F)CC2)c2ccccc12`, in experiment [1] (setting [4]), the EC50 was 5 to 25 nM. At PRC2 containing wt EZH2 [2] (read-out: Residence Time), the residence time lay in the range of 30 to 300 min.

With `Cc1cc(Cl)c(CNC(=O)c2c(C)n([C@H](C)C3CCOCC3)c3ccccc23)c(=O)[nH]1`, the concentration giving a half-maximal response (EC50) in experiment [1] (setting [4]) fell in the range of 25 to 125 nM. Besides, the residence time on PRC2 containing wt EZH2 [2] is < 30 min.

As to `CSc1cc(C)[nH]c(=O)c1CNC(=O)c1c(C)n([C@H](C)C2CCC(N3CC(OC4CC4)C3)CC2)c2ncccc12` (stereo partly shown), the EC50 in experiment [1] (setting [4]) is < 5 nM. Besides, the residence time at PRC2 containing wt EZH2 [2] (read-out: Residence Time) was 300 to 2100 min.

In the case of `CSc1cc(C)[nH]c(=O)c1CNC(=O)c1c(C)n([C@H](C)C2CCC(NC3(C(F)(F)F)COC3)CC2)c2ccccc12` (stereo partly shown), the EC50 in experiment [1] (setting [4]) is < 5 nM. On PRC2 containing wt EZH2 [2], this molecule registered a residence time of 300 to 2100 min.

Take `CSc1cc(C)[nH]c(=O)c1CNC(=O)c1c(C)n([C@H](C)C2CCN(C3COC3)CC2)c2ccccc12` [Example 133, (R)-2-methyl-N-((6-methyl-4-(methylthio)-2-oxo-1,2-dihydropyridin-3-yl)methyl)-1-(1-(1-(oxetan-3-yl)piperidin-4-yl)ethyl)-1H-indole-3-carboxamide]: the IC50 (in general, the concentration that inhibits the measured activity by half) against PRC2 containing wt EZH2 [3] (EZH2 (IC50)) was < 0.5 nM. Besides, in experiment [1] (setting [5]), the EC50 is < 10 nM.

On to `CSc1cc(C)[nH]c(=O)c1CNC(=O)c1c(C)n([C@H](C)C2CCN(C(=O)CO)CC2)c2ccccc12` [Example 135, (R)-1-(1-(1-(2-hydroxyacetyl)piperidin-4-yl)ethyl)-2-methyl-N-((6-methyl-4-(methylthio)-2-oxo-1,2-dihydropyridin-3-yl)methyl)-1H-indole-3-carboxamide], for which the IC50 on PRC2 containing wt EZH2 [3] (read-out: EZH2 (IC50)) is < 0.5 nM. Moreover, the EC50 in experiment [1] (setting [5]) is > 100 nM.

On to `CSc1cc(C)[nH]c(=O)c1CNC(=O)c1c(C)n([C@H](C)C2CCC(N3CC(O)C3)CC2)c2ccccc12` (stereo partly drawn) [Example 136, (R)-1-(1-(4-(3-hydroxyazetidin-1-yl)cyclohexyl)ethyl)-2-methyl-N-((6-methyl-4-(methylthio)-2-oxo-1,2-dihydropyridin-3-yl)methyl)-1H-indole-3-carboxamide], for which, on PRC2 containing wt EZH2 [3] (EZH2 (IC50)), the IC50 was < 0.5 nM. Besides, the EC50 in experiment [1] (setting [5]) was > 100 nM.

As to `COC1CC(N2CCC([C@@H](C)n3c(C)c(C(=O)NCc4c(SC)cc(C)[nH]c4=O)c4ccccc43)CC2)C1` (stereo partly drawn) [Example 140, (R)-1-(1-(1-(3-methoxycyclobutyl)piperidin-4-yl)ethyl)-2-methyl-N-((6-methyl-4-(methylthio)-2-oxo-1,2-dihydropyridin-3-yl)methyl)-1H-indole-3-carboxamide], the IC50 on PRC2 containing wt EZH2 [3] (EZH2 (IC50)) was < 0.5 nM. For the same molecule, in experiment [1] (setting [5]), the EC50 lay within 10 to 100 nM.

For the molecule `COC1CC(N2CCC([C@@H](C)n3c(C)c(C(=O)NCc4c(SC)cc(C)[nH]c4=O)c4cccnc43)CC2)C1` (stereo partly drawn) [Example 141, (R)-1-(1-(1-(3-methoxycyclobutyl)piperidin-4-yl)ethyl)-2-methyl-N-((6-methyl-4-(methylthio)-2-oxo-1,2-dihydropyridin-3-yl)methyl)-1H-pyrrolo[2,3-b]pyridine-3-carboxamide], on PRC2 containing wt EZH2 [3] (EZH2 (IC50)), the IC50 was < 0.5 nM. Besides, the EC50 in experiment [1] (setting [5]) lay within 10 to 100 nM.

Turning to `CSc1cc(C)[nH]c(=O)c1CNC(=O)c1c(C)n([C@H](C)C2CCN(C(=O)CN(C)C)CC2)c2ccccc12` [Example 142, (R)-1-(1-(1-(dimethylglycyl)piperidin-4-yl)ethyl)-2-methyl-N-((6-methyl-4-(methylthio)-2-oxo-1,2-dihydropyridin-3-yl)methyl)-1H-indole-3-carboxamide], the IC50 on PRC2 containing wt EZH2 [3] (read-out: EZH2 (IC50)) is < 0.5 nM. For the same molecule, the EC50 in experiment [1] (setting [5]) is > 100 nM.

Consider `CCS(=O)(=O)N1CCC([C@@H](C)n2c(C)c(C(=O)NCc3c(SC)cc(C)[nH]c3=O)c3ccccc32)CC1` [Example 146, (R)-1-(1-(1-(ethylsulfonyl)piperidin-4-yl)ethyl)-2-methyl-N-((6-methyl-4-(methylthio)-2-oxo-1,2-dihydropyridin-3-yl)methyl)-1H-indole-3-carboxamide], for which the IC50 at PRC2 containing wt EZH2 [3] (read-out: EZH2 (IC50)) is < 0.5 nM. Also, in experiment [1] (setting [5]), the EC50 is < 10 nM.

Regarding `COC1CC(N2CC[C@H]([C@@H](C)n3c(C)c(C(=O)NCc4c(SC)cc(C)[nH]c4=O)c4ccccc43)[C@@H](F)C2)C1` (stereo partly drawn) [Example 152, 1-((R)-1-((3R,4R)-3-fluoro-1-(3-methoxycyclobutyl)piperidin-4-yl)ethyl)-2-methyl-N-((6-methyl-4-(methylthio)-2-oxo-1,2-dihydropyridin-3-yl)methyl)-1H-indole-3-carboxamide], the IC50 at PRC2 containing wt EZH2 [3] (read-out: EZH2 (IC50)) was < 0.5 nM. For the same molecule, the EC50 in experiment [1] (setting [5]) is < 10 nM.

As to `COC1CC(N2CC[C@H]([C@@H](C)n3c(C)c(C(=O)NCc4c(SC)cc(C)[nH]c4=O)c4ccccc43)[C@H](F)C2)C1` (stereo partly drawn) [Example 153, 1-((R)-1-((3S,4R)-3-fluoro-1-(3-methoxycyclobutyl)piperidin-4-yl)ethyl)-2-methyl-N-((6-methyl-4-(methylthio)-2-oxo-1,2-dihydropyridin-3-yl)methyl)-1H-indole-3-carboxamide], the IC50 at PRC2 containing wt EZH2 [3] (read-out: EZH2 (IC50)) is < 0.5 nM. The EC50 in experiment [1] (setting [5]) was < 10 nM.

Consider `CSc1cc(C)[nH]c(=O)c1CNC(=O)c1c(C)n([C@H](C)C2CCC(N3CC(F)(C4CC4)C3)CC2)c2ncccc12` (stereo partly drawn) [Example 157, 1-((R)-1-(4-(3-cyclopropyl-3-fluoroazetidin-1-yl)cyclohexyl)ethyl)-2-methyl-N-((6-methyl-4-(methylthio)-2-oxo-1,2-dihydropyridin-3-yl)methyl)-1H-pyrrolo[2,3-b]pyridine-3-carboxamide], for which, on PRC2 containing wt EZH2 [3] (read-out: EZH2 (IC50)), the IC50 was < 0.5 nM. Besides, in experiment [1] (setting [5]), the EC50 was 10 to 100 nM.

Regarding `CSc1cc(C)[nH]c(=O)c1CNC(=O)c1c(C)n([C@H](C)C2CCC(N3CC(O)(C(C)C)C3)CC2)c2ncccc12` (stereo partly drawn) [Example 158, 1-((R)-1-(4-(3-hydroxy-3-isopropylazetidin-1-yl)cyclohexyl)ethyl)-2-methyl-N-((6-methyl-4-(methylthio)-2-oxo-1,2-dihydropyridin-3-yl)methyl)-1H-pyrrolo[2,3-b]pyridine-3-carboxamide], the IC50 on PRC2 containing wt EZH2 [3] (read-out: EZH2 (IC50)) is < 0.5 nM. Moreover, the EC50 in experiment [1] (setting [5]) was > 100 nM.

`CSc1cc(C)[nH]c(=O)c1CNC(=O)c1c(C)n([C@H](C)C2CCC(N3CC(n4ccnn4)C3)CC2)c2ccccc12` (stereo partly drawn) [Example 160, 1-((R)-1-(4-(3-(1H-1,2,3-triazol-1-yl)azetidin-1-yl)cyclohexyl)ethyl)-2-methyl-N-((6-methyl-4-(methylthio)-2-oxo-1,2-dihydropyridin-3-yl)methyl)-1H-indole-3-carboxamide]: the IC50 on PRC2 containing wt EZH2 [3] (read-out: EZH2 (IC50)) is < 0.5 nM. Further, in experiment [1] (setting [5]), the EC50 is < 10 nM.

`CSc1cc(C)[nH]c(=O)c1CNC(=O)c1c(C)n([C@H](C)C2CCC(NC3(C(F)(F)F)CC3)CC2)c2ncccc12` (stereo partly drawn) [Example 161, 2-methyl-N-((6-methyl-4-(methylthio)-2-oxo-1,2-dihydropyridin-3-yl)methyl)-1-((R)-1-(4-((1-(trifluoromethyl)cyclopropyl)amino)cyclohexyl)ethyl)-1H-pyrrolo[2,3-b]pyridine-3-carboxamide]: at PRC2 containing wt EZH2 [3] (read-out: EZH2 (IC50)), the IC50 is < 0.5 nM. The EC50 in experiment [1] (setting [5]) lay in the range of 10 to 100 nM.
